Test results from ChEMBL document CHEMBL5291721, “A preclinical secondary pharmacology resource illuminates target-adverse drug reaction associations of marketed drugs” (Nat Commun, 2023).

How the values were obtained:
Adenosine receptor A3 = target: T1, Adenosine receptor A3 (Homo sapiens, UniProt P0DMS8)
T1 sequence (P0DMS8 whole entry): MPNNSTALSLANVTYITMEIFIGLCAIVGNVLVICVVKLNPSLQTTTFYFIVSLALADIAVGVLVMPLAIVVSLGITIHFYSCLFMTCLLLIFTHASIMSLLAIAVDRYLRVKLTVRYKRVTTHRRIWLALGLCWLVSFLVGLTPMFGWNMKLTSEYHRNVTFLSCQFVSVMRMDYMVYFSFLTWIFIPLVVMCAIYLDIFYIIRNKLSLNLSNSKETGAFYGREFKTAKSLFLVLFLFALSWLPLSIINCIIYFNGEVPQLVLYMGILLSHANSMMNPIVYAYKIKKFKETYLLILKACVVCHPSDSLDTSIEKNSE

[1] = target: T2, Alpha-2A adrenergic receptor (Homo sapiens, UniProt P08913)
T2 sequence (P08913 whole entry): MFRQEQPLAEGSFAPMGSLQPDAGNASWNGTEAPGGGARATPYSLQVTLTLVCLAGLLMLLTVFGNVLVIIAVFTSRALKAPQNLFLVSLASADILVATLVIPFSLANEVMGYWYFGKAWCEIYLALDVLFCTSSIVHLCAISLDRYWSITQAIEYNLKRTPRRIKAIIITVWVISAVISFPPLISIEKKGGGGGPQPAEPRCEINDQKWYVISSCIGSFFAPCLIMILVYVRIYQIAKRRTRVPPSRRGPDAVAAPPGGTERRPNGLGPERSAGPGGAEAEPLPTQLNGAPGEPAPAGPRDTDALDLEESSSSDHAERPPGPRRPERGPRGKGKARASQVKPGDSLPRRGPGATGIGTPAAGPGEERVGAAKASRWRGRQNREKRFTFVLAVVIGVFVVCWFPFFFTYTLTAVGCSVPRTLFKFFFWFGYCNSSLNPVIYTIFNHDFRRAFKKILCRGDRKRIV

[2] = target: T3, Muscarinic acetylcholine receptor M1 (Homo sapiens, UniProt P11229); format: functional, cell-based
T3 sequence (P11229 whole entry): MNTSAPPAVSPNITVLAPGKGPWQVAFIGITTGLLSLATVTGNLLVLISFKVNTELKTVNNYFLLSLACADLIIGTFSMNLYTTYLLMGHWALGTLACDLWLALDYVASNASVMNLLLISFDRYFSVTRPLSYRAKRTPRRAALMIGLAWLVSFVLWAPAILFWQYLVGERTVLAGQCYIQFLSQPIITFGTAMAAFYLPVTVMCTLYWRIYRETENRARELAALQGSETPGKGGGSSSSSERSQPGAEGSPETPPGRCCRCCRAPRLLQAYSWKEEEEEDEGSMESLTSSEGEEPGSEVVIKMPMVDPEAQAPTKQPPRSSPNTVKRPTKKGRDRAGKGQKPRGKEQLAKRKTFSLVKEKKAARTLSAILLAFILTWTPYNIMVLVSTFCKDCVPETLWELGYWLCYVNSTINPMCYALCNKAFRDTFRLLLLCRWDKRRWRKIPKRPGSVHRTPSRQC

Prothrombin = Prothrombin (Homo sapiens, UniProt P00734); format: functional
Progesterone receptor = target: T4, Progesterone receptor (Homo sapiens, UniProt P06401)
T4 sequence (P06401 whole entry): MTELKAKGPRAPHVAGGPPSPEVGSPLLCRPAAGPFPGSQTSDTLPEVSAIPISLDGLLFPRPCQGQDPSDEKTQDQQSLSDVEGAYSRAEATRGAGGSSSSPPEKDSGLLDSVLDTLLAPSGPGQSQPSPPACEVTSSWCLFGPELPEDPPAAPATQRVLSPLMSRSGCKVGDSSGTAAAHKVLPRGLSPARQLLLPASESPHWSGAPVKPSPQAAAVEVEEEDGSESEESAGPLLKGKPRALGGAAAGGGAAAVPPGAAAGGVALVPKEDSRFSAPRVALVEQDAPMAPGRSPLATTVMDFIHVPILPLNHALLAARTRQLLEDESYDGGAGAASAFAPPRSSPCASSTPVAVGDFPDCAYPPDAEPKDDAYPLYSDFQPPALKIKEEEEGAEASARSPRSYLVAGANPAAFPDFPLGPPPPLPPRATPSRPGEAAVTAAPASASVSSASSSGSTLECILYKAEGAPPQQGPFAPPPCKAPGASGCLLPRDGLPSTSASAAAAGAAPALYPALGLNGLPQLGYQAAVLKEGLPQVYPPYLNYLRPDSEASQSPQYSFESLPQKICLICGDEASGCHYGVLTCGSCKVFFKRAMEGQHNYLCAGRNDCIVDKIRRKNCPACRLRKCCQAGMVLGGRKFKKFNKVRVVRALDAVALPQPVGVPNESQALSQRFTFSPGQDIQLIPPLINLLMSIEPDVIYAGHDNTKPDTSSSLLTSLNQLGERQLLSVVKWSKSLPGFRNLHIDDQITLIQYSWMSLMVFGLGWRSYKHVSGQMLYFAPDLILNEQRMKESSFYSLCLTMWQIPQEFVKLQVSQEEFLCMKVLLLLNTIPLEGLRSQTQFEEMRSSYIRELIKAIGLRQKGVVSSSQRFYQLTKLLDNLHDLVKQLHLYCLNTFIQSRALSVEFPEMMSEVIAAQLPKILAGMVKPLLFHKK

[3] = target: Prostaglandin G/H synthase 1 (Homo sapiens, UniProt P23219); format: functional
Sequence of Prostaglandin G/H synthase 1 (P23219 whole entry): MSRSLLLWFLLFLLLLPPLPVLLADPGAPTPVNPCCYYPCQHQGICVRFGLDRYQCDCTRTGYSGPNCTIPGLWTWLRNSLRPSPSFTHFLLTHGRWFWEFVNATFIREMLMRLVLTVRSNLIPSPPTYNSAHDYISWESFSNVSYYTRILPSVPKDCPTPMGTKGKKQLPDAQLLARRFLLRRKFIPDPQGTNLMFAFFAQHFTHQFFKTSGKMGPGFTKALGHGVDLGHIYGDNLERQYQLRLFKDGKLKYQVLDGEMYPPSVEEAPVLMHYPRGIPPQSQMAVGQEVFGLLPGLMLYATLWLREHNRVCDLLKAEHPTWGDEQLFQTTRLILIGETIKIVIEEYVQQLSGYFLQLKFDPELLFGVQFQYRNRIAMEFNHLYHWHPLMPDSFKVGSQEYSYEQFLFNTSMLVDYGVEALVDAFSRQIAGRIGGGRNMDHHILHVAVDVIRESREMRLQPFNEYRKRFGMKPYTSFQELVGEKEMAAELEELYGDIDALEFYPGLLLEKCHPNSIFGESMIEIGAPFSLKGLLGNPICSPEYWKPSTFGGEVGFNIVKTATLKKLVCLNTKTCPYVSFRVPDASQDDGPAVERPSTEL

Thromboxane A2 receptor = target: T5, Thromboxane A2 receptor (Homo sapiens, UniProt P21731); format: functional, cell-based
T5 sequence (P21731 whole entry): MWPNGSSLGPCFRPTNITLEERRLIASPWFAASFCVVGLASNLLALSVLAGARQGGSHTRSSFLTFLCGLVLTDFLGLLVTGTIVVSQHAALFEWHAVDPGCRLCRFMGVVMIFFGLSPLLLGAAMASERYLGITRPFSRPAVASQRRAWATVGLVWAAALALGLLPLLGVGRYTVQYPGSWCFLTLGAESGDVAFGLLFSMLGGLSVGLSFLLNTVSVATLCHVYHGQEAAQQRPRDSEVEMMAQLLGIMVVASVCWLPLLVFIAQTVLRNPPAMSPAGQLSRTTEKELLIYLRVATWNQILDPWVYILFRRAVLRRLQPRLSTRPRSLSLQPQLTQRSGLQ
Further: assay procedure not described here.

Structure (SMILES) | AC50 (Adenosine receptor A3) | AC50 [1] | AC50 [2] | AC50 (Prothrombin) | AC50 (Progesterone receptor) | AC50 [3] | AC50 (Thromboxane A2 receptor)
CCOc1ccc(Cc2cc([C@@H]3O[C@H](CO)[C@@H](O)[C@H](O)[C@H]3O)ccc2Cl)cc1 [DAPAGLIFLOZIN] | > 30 µM | > 30 µM | > 30 µM | > 30 µM | > 30 µM | > 30 µM | > 30 µM
N=c1ccn2c(n1)O[C@H]1[C@H](O)[C@@H](CO)O[C@H]12 [ANCITABINE] | > 30 µM | > 30 µM | > 30 µM | > 30 µM | > 30 µM | > 30 µM | > 30 µM
OC[C@@H](O)[C@H](O)[C@@H](O)CO [XYLITOL] | > 30 µM | > 30 µM | > 30 µM | > 30 µM | > 30 µM | > 30 µM | > 30 µM
COc1ccc(C(=O)Nc2ccccc2CCC2CCCCN2C)cc1 (centres undefined) [ENCAINIDE] | > 30 µM | > 30 µM | > 30 µM | > 30 µM | > 30 µM | > 30 µM | > 30 µM
CCOc1ccccc1C(N)=O [ETHENZAMIDE] | > 30 µM | > 30 µM | > 30 µM | > 30 µM | > 30 µM | > 30 µM | > 30 µM
OC(CCN1CCCCC1)(c1ccccc1)c1ccccc1 [PRIDINOL] | > 30 µM | > 30 µM | 0.0824 µM | > 30 µM | > 30 µM | > 30 µM | > 30 µM
NC(=O)C[C@H](N)C(=O)O [ASPARAGINE] | > 30 µM | > 30 µM | > 30 µM | > 30 µM | > 30 µM | > 30 µM | > 30 µM
CC(=O)Oc1ccc2c(c1)CC[C@@H]1[C@@H]2CC[C@]2(C)[C@@H](O)CC[C@@H]12 [ESTRADIOL ACETATE] | 10.5 µM | > 30 µM | 7.24 µM | > 30 µM | 0.209 µM | > 30 µM | 13.1 µM
O=[N+]([O-])c1cn2c(n1)OC[C@@H](OCc1ccc(OC(F)(F)F)cc1)C2 [PRETOMANID] | > 30 µM | > 30 µM | 10.6 µM | > 30 µM | > 30 µM | > 30 µM | > 30 µM
CCOc1ccccc1OCC1CNCCO1 (centres undefined) [VILOXAZINE] | > 30 µM | > 30 µM | > 30 µM | > 30 µM | > 30 µM | > 30 µM | > 30 µM
CCN(CC)CCNc1ccc(CO)c2sc3ccccc3c(=O)c12 [HYCANTHONE] | > 30 µM | 1.73 µM | 17.6 µM | > 30 µM | > 30 µM | > 30 µM | 23.1 µM
CCOC(=O)/C=C1\SC(N2CCCCC2)C(=O)N1C (centres undefined) [ETOZOLIN] | > 30 µM | > 30 µM | > 30 µM | > 30 µM | > 30 µM | > 30 µM | > 30 µM
CCN(CC)CCc1nc(-c2ccccc2)no1 [OXOLAMINE] | > 30 µM | > 30 µM | > 30 µM | > 30 µM | > 30 µM | > 30 µM | > 30 µM
CC(C)C[C@H]1C(=O)N2CCC[C@H]2[C@]2(O)O[C@](NC(=O)[C@@H]3C[C@@H]4c5cccc6[nH]cc(c56)C[C@H]4N(C)C3)(C(C)C)C(=O)N12 [DIHYDROERGOCRYPTINE] | > 30 µM | 0.847 µM | > 30 µM | > 30 µM | > 30 µM | 18.4 µM | > 30 µM
CC(=O)[C@@]1(O)CC[C@H]2[C@@H]3C=C(C)C4=CC(=O)CC[C@]4(C)[C@H]3CC[C@@]21C | > 30 µM | > 30 µM | 15.3 µM | > 30 µM | 0.285 µM | > 30 µM | > 30 µM
CCCCOC(=O)C(=O)[C@H]1[C@H](C)C[C@H]2[C@@H]3C[C@H](F)C4=CC(=O)C=C[C@]4(C)[C@H]3[C@@H](O)C[C@@]21C [FLUOCORTIN BUTYL] | 7.82 µM | > 30 µM | 19.8 µM | > 30 µM | 0.711 µM | > 30 µM | > 30 µM
OC(c1ccccc1)(c1ccccc1)C12CC[N+](CCOCc3ccccc3)(CC1)CC2 | > 30 µM | > 30 µM | 0.0053 µM | > 30 µM | > 30 µM | > 30 µM | > 30 µM
CCC(C)(C)c1ccc(CC(C)CN2C[C@@H](C)O[C@@H](C)C2)cc1 (some centres undefined) [AMOROLFINE] | 12.1 µM | > 30 µM | 10.8 µM | > 30 µM | > 30 µM | > 30 µM | > 30 µM
CCCNC(C)C(=O)Nc1c(C)csc1C(=O)OC (centres undefined) [ARTICAINE] | > 30 µM | > 30 µM | > 30 µM | > 30 µM | > 30 µM | > 30 µM | > 30 µM
CC1=C(/C=C/C(C)=C/C=C/C(C)=C/C=C/C=C(C)/C=C/C=C(C)/C=C/C2=C(C)CCCC2(C)C)C(C)(C)CCC1 [BETA CAROTENE] | > 30 µM | > 30 µM | > 30 µM | > 30 µM | > 30 µM | 8.1 µM | > 30 µM
CC(=O)OCC1=C(C(=O)O)N2C(=O)[C@@H](NC(=O)[C@H](N)c3ccccc3)[C@H]2SC1 [CEPHALOGLYCIN] | > 30 µM | > 30 µM | > 30 µM | > 30 µM | > 30 µM | 5.93 µM | > 30 µM
Clc1ccc(C(OCCN2CCCCC2)c2ccccc2)cc1 (centres undefined) [CLOPERASTINE] | > 30 µM | 2.72 µM | 0.551 µM | > 30 µM | > 30 µM | > 30 µM | 17 µM
